{
  "source": "patent US9072777B2",
  "about": "“Method for screening substance having proangiogenic effect” (priority 2005, dated 2015)",
  "key": {"[1]": {"test_system": "lower extremity ischemia model mouse", "assay": "lower extremity ischemia model mouse (laser Doppler perfusion imaging, wound healing, new vessels)", "type": "in vivo", "method": "Mouse lower extremity ischemia model was prepared as follows.\nC3H mice were anesthetized with nembutal and then skin of one side of lower extremity was cut open to expose artery of lower extremity. The lower extremity ischemia model was prepared by ligating artery of lower extremity at upper groin and lower popliteal region and resecting the artery of lower extremity at this region. The recovery of the blood flow after the resection of the artery of lower extremity by the development of the collateral circulation was observed.\nC3H mice at the age of 6 months were divided into three groups; AM administration group, VEGF administration group, and control group. Mice of AM treatment group was continuously injected with AM (50 ng/h) by osmotic pump. Each mouse of VEGF administration group was injected with 20 μl of VEGF (5 ng/h) intramuscularly and used as positive control. Mice of control group were injected with PBS continuously.\nThe blood flow in the lower extremity ischemia model was monitored using laser Doppler perfusion imaging. The effect of AM on wound healing was also investigated. […] In FIG. 4, almost no blood flow in ischemic lower limb was observed on the first day of ischemic model preparation ([…] day 0).\nThe increasing of the number of new intramuscular blood vessel at the side of operation was also observed (FIG. 6, panel B). In contrast, in AM heterozygous knockout mice (AM +/−), and the mice administered with “AM 22-52”, a truncated form of AM consisting of from 22 to 52 amino acid sequence (AM antagonist), suppression of the recovery of blood flow and the angiogenesis were observed (FIG. 7). In FIG. 7, the mark “**” denotes p<0.01. Hereinafter the same."}, "claudin 5": {"test_system": "claudin 5", "assay": "claudin 5 gene expression in HUVEC cultured on Matrigel, real-time PCR", "type": "cell-based, human", "method": "(1) Adrenomedullin was administered exogenously to HUVEC cultured on Matrigel. After stimulating for 24 hours, the cell was recovered and RNA was extracted. The expression of claudin 5 gene was investigated using real-time PCR technique.\n(2) “AM 22-52”, a truncated form of AM consisting of from 22 to 52 amino acid sequence was administered to HUVEC cultured on Matrigel to investigate the gene expression level."}, "Akt": {"test_system": "Akt", "assay": "phosphorylation of Akt in HUVEC, Western Blot", "type": "cell-based, human", "conditions": "AM 10^-11 to 10^-7 M in combination with VEGF 10 ng/ml", "method": "(§1) Single administration of AM (10^−11 to 10^−7 M) alone, or administration of AM in combination with VEGF (10 ng/ml) to the cultivating system of human umbilical vein endothelial cell was carried out. Protein was extracted from cells and the phosphorylation of Akt and eNOS was investigated using Western Blot analysis."}, "eNOS": {"test_system": "eNOS", "assay": "phosphorylation of eNOS in HUVEC, Western Blot", "type": "cell-based, human", "conditions": "AM 10^-11 to 10^-7 M in combination with VEGF 10 ng/ml", "method": "as §1"}, "VEGF [2]": {"test_system": "VEGF", "assay": "expression of VEGF in femoral muscle of lower extremity ischemia model mouse, Western Blot", "type": "in vivo", "conditions": "AM administration group vs control", "method": "The lower extremity ischemia model mouse prepared as in Example 2 was sacrificed by cervical dislocation, then femoral muscle sampled, from which protein was extracted and Western Blot analysis was conducted."}, "VEGF [3]": {"test_system": "VEGF", "assay": "expression of VEGF in human artery endothelial cell (HAEC), RT-PCR", "type": "cell-based", "conditions": "AM concentration and stimulation time dependence", "method": "Also, the expression of VEGF in human artery endothelial cell (HAEC) was analyzed using RT-PCR."}, "[4]": {"test_system": "AM heterozygous knockout mice (AM +/-)", "assay": "rescue test using AM heterozygous knockout mice (lower extremity ischemia model)", "type": "in vivo, mouse", "conditions": "for formation of new blood vessel: AM +/- mice supplemented with AM or VEGF; for recovery of blood flow / angiogenesis effect: AM +/- mice supplemented with exogenous AM or VEGF", "method": "Rescue test using AM knockout mouse may also be carried out. In the lower-extremity ischemia model prepared from the AM knockout mouse with decreased expression level of AM, angiogenesis potency decreases. When AM is administered exogenously to the AM knockout mouse, recovery of angiogenesis potency may be observed. This is referred to as “rescue test”.\nIn this example, The lower extremity ischemia model mice were prepared as in Example 2, and the recovery of blood flow of the AM heterozygous knockout mice (AM +/−) supplemented with exogenous AM or VEGF."}, "Flk-1 knockout mice": {"test_system": "Flk-1 knockout mice", "assay": "rescue test using Flk-1 knockout mice (lower extremity ischemia model)", "type": "in vivo, mouse", "method": "On the other hand, supplementation of AM to Flk-1, a receptor of VEGF knockout mice was conducted as a rescue test opposite to that mentioned above. The recovery of blood flow in Flk-1 knockout mice decreased in comparison with wild-type."}, "[5]": {"test_system": "angiogenesis enhancing factors and adhesion factor gene expression", "assay": "gene array of sample from lower extremity ischemia model mice", "type": "in vivo, mouse", "source_text": "In this Example, the gene group of which expression level changes by the administration of AM were monitored by gene array using the sample form the lower extremity ischemia model mice"}, "HUVEC": {"test_system": "HUVEC", "assay": "in vitro vascular permeability assay (FITC-dextran through HUVEC monolayer)", "type": "cell-based, human", "method": "In vitro vascular permeability assay is an assay in which the cells are cultured in the insert placed on the culture plate with semi-permeable membrane at the bottom to form monolayer, then the substance is added to the insert and the extent of permeability into the plate through the cell monolayer is measured. In particular, the extent of permeability is measured by addition of the substance for the vascular permeability test such as AM, followed by the addition of dextran labeled with FITC onto the cell monolayer, allowing it to permeate through the monolayer, and the fluorescence intensity in the plate well solution is measured. Thus, the suppression activity of AM on the vascular permeability may be investigated.\nAn insert made of semi-permeable membrane was placed on a cultivation plate, in which HUVEC was cultured so that the cells formed monolayer (EBM-2 medium, 5% CO2, 37° C., 24 hours). The extent of permeability was measured by addition of the substance for the vascular permeability test to the plate on which cell were cultured, followed by the addition of dextran labeled with FITC onto the cell monolayer, allowing it to permeate through the monolayer, and the fluorescence intensity in the plate well solution was measured."}, "[6]": {"test_system": "lower extremity edema model mice", "assay": "lower extremity edema model mice by topical injection of carrageenan", "type": "in vivo, mouse", "conditions": "continuous administration of AM; carrageenan to pad of foot", "method": "Transient edema may be prepared by topical injection of carrageenan, a hyperosmotic substance to pad of foot of mouse. Magnitude of the edema thus formed was evaluated by measuring the thickness of feet pad from time to time."}, "[7]": {"test_system": "cerebral edema model mice", "assay": "cerebral edema model (cold injury of dura mater)", "type": "in vivo, mouse", "conditions": "AM administration group vs control", "method": "Mice were anesthetized with nembutal and then skull was opened. Injury was provided by contacting a cylinder cooled to −80° C. against dura mater. After 24 hours, mice were sacrificed, brain was removed and the increasing in the weight of the brain due to the cerebral edema was quantified. In the similar cerebral edema model, fluorescent-labeled dextran was injected into the tail vein and the leakage of the fluorescence dye out of the vessel in brain was quantified using fluorescent plate reader."}, "[8]": {"conditions": "mice administered with AM 22-52"}, "[9]": {"conditions": "gene array, AM administration group vs control group"}},
  "note": "Ends that are not written are not given here.",
  "data": [
    {"substance": "AM 22-52: a truncated form of AM consisting of from 22 to 52 amino acid sequence (AM antagonist) (TVQKLAHQIYQFTDKDKDNVAPRSKISPQGY; ends and bridges not checked; UniProt P35318 116-146, looked up, fragment) [reference compound]", "values": [
      {"measurement": "angiogenesis", "setting": "[1]; [8]", "result": "suppression"},
      {"measurement": "recovery of blood flow", "setting": "[1]; [8]", "result": "suppression"},
      {"measurement": "expression of claudin 5", "setting": "claudin 5", "result": "decreased"}
    ]},
    {"substance": "Adrenomedullin [AM]", "values": [
      {"measurement": "wound, amputation and shortening of lower limb", "setting": "[1]; AM 50 ng/h, vs control group", "result": "Reduction of wound and decreasing in the number of amputation and shortening of lower limb"},
      {"measurement": "percentage of the mice in which the lower limb is normal or with slight wound", "setting": "[1]; AM administration group", "result": "more than 80%"},
      {"measurement": "number of mice in which the lower limb was amputated or with severe wound", "setting": "[1]; AM administration group vs control group", "result": "smaller than that in the control group"},
      {"measurement": "blood flow in ischemic lower limb", "setting": "[1]; Day 7 and 12 after ischemia, AM 50 ng/h", "result": "recovery of blood flow was observed"},
      {"measurement": "number of new intramuscular blood vessel at the side of operation", "setting": "[1]; administration of AM", "result": "increasing"},
      {"measurement": "recovery of the blood flow, ratio ischemic side (L) / non-ischemic side (R) (L/R)", "setting": "[1]; administration of AM", "result": "significant recovery in the blood flow"},
      {"measurement": "recovery of the blood flow of lower extremity", "setting": "[1]; laser Doppler perfusion imaging, AM 50 ng/h continuously by osmotic pump, C3H mice", "result": "Improvement in the recovery of the blood flow"},
      {"measurement": "phosphorylation of Akt by VEGF", "setting": "Akt", "result": "enhanced"},
      {"measurement": "phosphorylation of eNOS by VEGF", "setting": "eNOS", "result": "enhanced"},
      {"measurement": "expression level of VEGF", "setting": "VEGF [2]", "result": "increased from the early stage after the ischemia operation (day 1)"},
      {"measurement": "expression level of VEGF", "setting": "VEGF [3]", "result": "increased concentration- and time dependently"},
      {"measurement": "formation of new blood vessel", "setting": "[4]", "result": "recovered to the level comparable to the wild-type"},
      {"measurement": "recovery of blood flow / angiogenesis effect", "setting": "[4]", "result": "recovery of the angiogenesis effect"},
      {"measurement": "recovery of blood flow", "setting": "Flk-1 knockout mice; exogenous AM to Flk-1 knockout mice", "result": "no recovery of blood flow"},
      {"measurement": "recovery of blood flow", "setting": "Flk-1 knockout mice; exogenous AM to wild-type mice", "result": "enhance the recovery of blood flow"},
      {"measurement": "expression levels of eNOS, Osteopontin, VEGF, VCAM-1 and the like", "setting": "[5]; administration of AM in comparison with control group", "result": "increased"},
      {"measurement": "COL18A1 expression, AM(+)/Control", "setting": "[5]; [9]", "result": 2.72},
      {"measurement": "Osteopontin expression, AM(+)/Control", "setting": "[5]; [9]", "result": 1.93},
      {"measurement": "PAI-1 expression, AM(+)/Control", "setting": "[5]; [9]", "result": 1.79},
      {"measurement": "PDGF-A expression, AM(+)/Control", "setting": "[5]; [9]", "result": 5.60},
      {"measurement": "PDGFRβ expression, AM(+)/Control", "setting": "[5]; [9]", "result": 1.58},
      {"measurement": "TGFβ expression, AM(+)/Control", "setting": "[5]; [9]", "result": 4.04},
      {"measurement": "Tie-2 expression, AM(+)/Control", "setting": "[5]; [9]", "result": 3.61},
      {"measurement": "VCAM-1 expression, AM(+)/Control", "setting": "[5]; [9]", "result": 3.65},
      {"measurement": "VEGF expression, AM(+)/Control", "setting": "[5]; [9]", "result": 1.50},
      {"measurement": "eNOS expression, AM(+)/Control", "setting": "[5]; [9]", "result": 1.71},
      {"measurement": "β-glycan expression, AM(+)/Control", "setting": "[5]; [9]", "result": 6.76},
      {"measurement": "vascular permeability (FITC-dextran through cell monolayer)", "setting": "HUVEC; AM in addition to VEGF", "result": "suppressed the enhancement of vascular permeability by VEGF"},
      {"measurement": "vascular permeability (FITC-dextran through cell monolayer)", "setting": "HUVEC; substance alone", "result": "suppression of vascular permeability"},
      {"measurement": "formation of edema at lower limb (thickness of feet pad)", "setting": "[6]", "result": "suppressed"},
      {"measurement": "vascular permeability in brain (leakage of fluorescent-labeled dextran)", "setting": "[7]", "result": "suppressed in comparison with control"},
      {"measurement": "weight of brain", "setting": "[7]; 24 hours after injury", "result": "decreased"},
      {"measurement": "expression of claudin 5", "setting": "claudin 5", "result": "enhanced"}
    ]},
    {"substance": "vascular endothelial growth factor [VEGF]", "values": [
      {"measurement": "formation of new blood vessel", "setting": "[4]", "result": "recovered to the level comparable to the wild-type"},
      {"measurement": "recovery of blood flow / angiogenesis effect", "setting": "[4]", "result": "recovery of the angiogenesis effect"},
      {"measurement": "vascular permeability (FITC-dextran through cell monolayer)", "setting": "HUVEC; substance alone", "result": "enhanced vascular permeability"}
    ]}
  ]
}
